Like-named read-outs stand apart in the source and are kept apart here. *1 amine or outer side, *2 acyl side, *3 side chain or, on linkers, in order; H or OH if unused. Where a SMILES comes first, the peptide text is derived from it. Bridges are numbered along the chain shown (N, C = ends). [ ]: non-standard residue; d: D form. The star is where a group is joined. Orn(4R-OH,5R-OCH2CH2NMe3+) = C[N+](C)(C)CCO[C@@H](N[*:3])[C@H](O)C[C@H](N[*:1])C(=O)[*:2]; pTerphenylCO(4''-OnC5H11) = CCCCCOc1ccc(-c2ccc(-c3ccc(C(=O)*)cc3)cc2)cc1; hTyr(3S-OH,4S-OH) = N[C@H](C(=O)O)[C@H](O)[C@@H](O)c1ccc(O)cc1; Pro(3S-OH,4S-Me) = C[C@H]1CN[C@H](C(=O)O)[C@H]1O; Hyp = O=C(O)[C@@H]1C[C@@H](O)CN1
Experiments:
[1] = Multiple ascending dose IV study in healthy adult subjects (safety, PK); assay type: in vivo, human; conditions: for Accumulation Ratio AUC0-168 / Accumulation Ratio Cmax: last/first dose; for Cmax / AUC(0-t): human, plasma, intravenous; for AUC(0-t): read-out: AUC0-168
Procedure: A second study of CD101 administered by IV injection to healthy adult subjects was also performed. In this study, subjects in 3 cohorts of 8 subjects (6 active, 2 placebo) each were randomized to receive multiple IV doses of CD101 or placebo (normal saline) infused over 60 (±5) minutes. Dose levels of CD101 assessed follow an ascending multiple-dose regimen (100 mg×2 doses, 200 mg×2 doses, or 400 mg×3 doses).
Pharmacokinetics were determined by analyzing plasma and urine samples for concentration of CD101 obtained from subjects who received CD101 in each cohort at various time points after administration of CD101.

[2] = Murine protein binding; assay type: in vitro ADME; conditions: used to generate free-drug plasma concentrations
[3] = tested on: C. albicans; test: MIC by CLSI standards; conditions: Candida albicans
[4] = tested on: glabrata; conditions: Sentry 2014; compared with MIC of 0.5 mg/L; cited from earlier work
[5] = tested on: C. albicans; test: Mutant prevention concentration (MPC); assay type: cell-based, Candida albicans
Description: As used herein, the term “mutant prevention concentration” or “MPC” refers to the concentration of a drug sufficient to suppress the development of all but very rare spontaneous mutants. The range of drug concentrations between the MIC and MPC represents a mutant selection window wherein de novo mutants are most likely to occur. Therapeutic regimens that maximize the duration of drug concentrations in excess of the MPC thereby minimize the potential for resistance development during the course of therapy.
(§1) Selection of resistance strains in vivo predominantly occurs over a range of drug concentrations falling between the MIC and MPC values. Dosing paradigms that result in plasma drug concentrations in excess of the MPC are therefore more desirable and effective in preventing the development of de novo mutants during the course of therapy (see, e.g., Drlica et al., J. Antimicrob. Chemother. 52:11-17, 2003). Currently approved treatment regimens for caspofungin, micafungin, and anidulafungin involve once-daily dosing at levels such that the Cmax is unlikely to be equivalent to or exceed the MPC at any point during treatment.

[6] = Plasma protein binding assumed for the simulations; assay type: in vitro ADME; conditions: assumed for the Monte Carlo simulations
Procedure: Monte Carlo simulations were conducted to assess the probability of PK-pharmacodynamic (PD) target attainment using a variety of exploratory dosing regimens. Two dosing regimens were selected for further investigation (Table 5). […] Nonclinical studies of Candida albicans infections in mice have shown that a CD101 fAUC0-168:MIC ratio of 10 has been associated with a 2-log reduction in fungal burden in infected kidneys. This value of 10 was therefore chosen as the PK-PD target of interest for the Monte Carlo simulations.

[7] = tested on: C.albicans (Strain R303); test: MIC of the infecting strain R303; conditions: Candida albicans
[8] = tested on: C.albicans (Strain R303); test: Dose-fractionation study in neutropenic mice, kidney fungal burden; conditions: 2 mg/kg as a single dose IP, at 168 hours
Procedure: Dose-Fractionation Study. Male or female ICR mice (5 per regimen and observation time) weighing 22±2 g were rendered neutropenic for the study by injecting the mice with cyclophosphamide treatment four days (−Day 4) (150 mg/kg IP) and one day (−Day 1) prior to infection at 100 mg/kg IP. Neutropenia was sustained for the duration of the study with cyclophosphamide doses (100 mg/kg IP) every 48 hours on days +1, +3, +5 and +7 after infection.
Mice were sacrificed 168 hours (7 days) following the start of treatment. Control arm mice were sacrificed 0, 24, and 48 hours post administration of vehicle. Paired kidneys are aseptically harvested, homogenized, and plated for colony counts to determine the fungal burden (CFU/g).

[9] = PK model, free-drug plasma concentration-time profiles of fractionated regimens; parameters: species or system mice
Procedure: Pharmacokinetic-Pharmacodynamic Analyses. Using the data collected from the PK study, a PK model was developed in S-ADAPT. Using the developed PK model, concentration-time profiles and AUC0-168h values were computed for each dosing regimen administered in the dose-fractionation study. […] Relationships between the change in log10 CFU from start of therapy and AUC0-168h were explored.

[10] = tested on: C. glabrata; test: Neutropenic murine disseminated candidiasis model, PK/PD; conditions: for 1 log kill dose / Static Dose: single IP dose, 7 days
[11] = tested on: Aspergillus fumigatus (ATCC 13073); test: Neutropenic mouse model of aspergillosis, survival; assay type: in vivo, mice; conditions: 2 mg/kg IV or IP one dose; 10 days; P<0.05
[12] = Modeling of CD101 total plasma concentrations versus MPC; conditions: modeling based on in vivo PK data
Description: as §1

[13] = Pharmacokinetic study, single IP dose; assay type: in vivo, ICR mice; conditions: 1 to 16 mg/kg IP
Procedure: Pharmacokinetic Study. Healthy female ICR mice were given a single dose of CD101 via intraperitoneal (IP) injection. The following doses, at three mice per dose, were studied: 1, 4, and 16 mg/kg.

[14] = tested on: C. glabrata; test: MIC by CLSI standards; conditions: Nakaseomyces glabratus
[15] = 100 mg x2, 200 mg x2 or 400 mg x3 doses IV

In the case of `CCCCCOc1ccc(-c2ccc(-c3ccc(C(=O)N[C@H]4C[C@@H](O)[C@@H](OCC[N+](C)(C)C)NC(=O)[C@@H]5[C@@H](O)[C@@H](C)CN5C(=O)[C@H]([C@@H](C)O)NC(=O)[C@H]([C@H](O)[C@@H](O)c5ccc(O)cc5)NC(=O)[C@@H]5C[C@@H](O)CN5C(=O)[C@H]([C@@H](C)O)NC4=O)cc3)cc2)cc1` [CD101] ({pTerphenylCO(4''-OnC5H11)}-[Orn(4R-OH,5R-OCH2CH2NMe3+)]T[Hyp][hTyr(3S-OH,4S-OH)]T[Pro(3S-OH,4S-Me)]; lactam 1-C), the “Accumulation Ratio AUC0-168” value ([1]; 100 mg (Day 1/Day 8)) is reported as 1.30, the “Accumulation Ratio Cmax” value ([1]; 100 mg (Day 1/Day 8)) is reported as 1.14 and the “Drug-related AEs from laboratory abnormalities” value [1, 15] is reported as “no drug-related AEs resulting from clinically significant hematology or clinical chemistry laboratory abnormalities at any dose”. For the same compound, the “ECG, vital signs, physical exam” value [1, 15] was “no safety issues related to ECGs, vital signs, or physical exam findings”, the “Serious and severe adverse events” value [1, 15] was “no SAEs or severe AEs” and the “Severity and resolution of AEs” value [1, 15] was “majority of AEs were mild, and all related AEs completely resolved by the end of the study”. For the same compound, the “Accumulation Ratio AUC0-168” value ([1]; 200 mg (Day 1/Day 8)) was 1.43, the “Accumulation Ratio Cmax” value ([1]; 200 mg (Day 1/Day 8)) was 1.17 and the “Accumulation Ratio AUC0-168” value ([1]; 400 mg (Day 1/Day 8/Day 15)) was 1.55. For the same compound, the “Accumulation Ratio Cmax” value ([1]; 400 mg (Day 1/Day 8/Day 15)) was 1.34, the Cmax ([1]; 100 mg, 100 mg weekly, Day 1) was 5670 ng/mL and the AUC(0-t) ([1]; 100 mg, 100 mg weekly, Day 1) was 299 µg·h/mL. The Cmax ([1]; 100 mg, 100 mg weekly, Day 8) was 6490 ng/mL, the AUC(0-t) ([1]; 100 mg, 100 mg weekly, Day 8) was 390 µg·h/mL and the Cmax ([1]; 200 mg, 200 mg weekly, Day 1) was 10600 ng/mL. It also gave an AUC(0-t) ([1]; 200 mg, 200 mg weekly, Day 1) of 570 µg·h/mL, a Cmax ([1]; 200 mg, 200 mg weekly, Day 8) of 12400 ng/mL and an AUC(0-t) ([1]; 200 mg, 200 mg weekly, Day 8) of 813 µg·h/mL. It also gave a Cmax ([1]; 400 mg, 400 mg weekly, Day 1) of 22700 ng/mL, an AUC(0-t) ([1]; 400 mg, 400 mg weekly, Day 1) of 1190 µg·h/mL and a Cmax ([1]; 400 mg, 400 mg weekly, Day 15) of 30500 ng/mL. For the same compound, the AUC(0-t) ([1]; 400 mg, 400 mg weekly, Day 15) was 1840 µg·h/mL, the Safety and tolerability ([1]; multiple doses up to 400 mg) was “safe and well tolerated” and the Infusion reactions ([1]; primarily 400 mg cohort, most common with third dose) was “Four subjects in the CD101 group experienced mild, transient infusion reactions”. For the same compound, the “Murine protein binding value” [2] was 99.1%, the MIC ([3]; C. albicans 98-17) was 0.06 µg/mL and the MIC ([3]; C. albicans 98-210) was 0.016 µg/mL. The MIC ([3]; C. albicans 580) was 0.016 µg/mL, the MIC ([3]; C. albicans K-1) was 0.008 µg/mL and the MIC ([3]; read-out: MICs, 4 C. albicans strains) was 0.008 to 0.06 µg/mL. For the same compound, the MIC90 [4] was 0.06 µg/mL, the MPC [5] was 16 µg/mL and the Plasma protein binding [6] was 99.1%. For the same compound, the MIC [7] was 0.125 µg/mL, the “CFU reduction from baseline” value [8] was “greater than 2 log10 CFU” and the “Time free-drug plasma concentrations of single dose remain above the daily regimen” value ([9]; 2 mg/kg total dose) was 48 h. For the same compound, the “Time free-drug plasma concentrations of single dose remain above the twice weekly regimen” value ([9]; 2 mg/kg total dose) was 84 h, the “Free-drug plasma AUC0≥” value ([9]; CD101 2 mg/kg as a single dose) was 0.0654 mgh/L and the “Free-drug plasma AUC0≥” value ([9]; CD101 2 mg/kg total, daily regimen) was 0.00948 mgh/L. For the same compound, the “Free-drug plasma AUC0≥” value ([9]; CD101 2 mg/kg total, twice weekly) was 0.0303 mgh/L, the “1 log kill Ave 24 h AUC/MIC” value ([10]; C. glabrata 5592) was 114 and the “Stasis Ave 24 h AUC/MIC” value ([10]; C. glabrata 5592) was 21.7. The “1 log kill dose” value ([10]; C. glabrata 5592) was 0.51 mg/kg, the “Static Dose” value ([10]; C. glabrata 5592) was 0.03 mg/kg and the “1 log kill Ave 24 h AUC/MIC” value ([10]; C. glabrata 10956) was 301. For the same compound, the “Stasis Ave 24 h AUC/MIC” value ([10]; C. glabrata 10956) was 120, the “1 log kill dose” value ([10]; C. glabrata 10956) was 17.3 mg/kg and the “Static Dose” value ([10]; C. glabrata 10956) was 6.29 mg/kg. For the same compound, the “1 log kill Ave 24 h AUC/MIC” value ([10]; C. glabrata 35315) was 105, the “Stasis Ave 24 h AUC/MIC” value ([10]; C. glabrata 35315) was 17.9 and the “1 log kill dose” value ([10]; C. glabrata 35315) was 2.39 mg/kg. For the same compound, the “Static Dose” value ([10]; C. glabrata 35315) was 0.34 mg/kg, the Survival versus vehicle [11] was “significantly longer survival than vehicle” and the “IV dose sufficient to generate concentrations in excess of 16 μg/ml (MPC)” value [12] was no less than 150 mg. The “Linearity of PK” value [13] was “linear PK”, the MIC ([14]; C. glabrata 5592) was 0.06 µg/mL and the MIC ([14]; C. glabrata 10956) was 0.5 µg/mL. It also gave an MIC ([14]; C. glabrata 35315) of 0.25 µg/mL and an MIC ([14]; read-out: MICs, 3 C. glabrata strains) of 0.06 to 0.5 µg/mL.
